The text below walks through data of US20250170141A1, “MRGPRX2 MODULATORS AND RELATED METHODS OF TREATMENT” (Escient Pharmaceuticals, Inc., priority 2023, published 2025).

Some results are limits rather than exact numbers.

This assay addresses T1, human MRGPRX2 (Homo sapiens, UniProt Q96LB1).
T1 construct: expressed in transfected cells; host or cells: CHO cells, stably transfected (G418 and Hygromycin B selection)
T1 sequence (Q96LB1 1-330): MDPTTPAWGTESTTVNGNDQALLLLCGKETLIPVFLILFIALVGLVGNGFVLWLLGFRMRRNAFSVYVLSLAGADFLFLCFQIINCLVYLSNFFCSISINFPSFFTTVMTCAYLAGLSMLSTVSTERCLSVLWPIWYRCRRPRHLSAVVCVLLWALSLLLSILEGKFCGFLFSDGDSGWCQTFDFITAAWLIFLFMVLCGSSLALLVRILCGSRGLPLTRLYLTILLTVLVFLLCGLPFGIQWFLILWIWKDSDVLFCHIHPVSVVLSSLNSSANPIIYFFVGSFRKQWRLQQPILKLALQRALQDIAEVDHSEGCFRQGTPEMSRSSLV
Put plainly: MRGPRX2 activity: IP-One Gq HTRF assay in CHO cells, antagonism versus 0.3 uM Cortistatin-14. To be noted: versus 0.3 uM Cortistatin-14 agonist, CHO cells expressing human MRGPRX2, read-out: MRGPRX2 Antagonist Activity. The class given is cell-based. The procedure, abridged: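 Antagonist IC50 was derived from the HTRF IP-1 signal after co-addition of compounds (10 points, top 30 uM, 3-fold steps) and 0.3 μM Cortistatin-14 agonist to human MRGPRX2-expressing CHO cells. Assay buffer contained 50 mM LiCl, pH 8; plates sat 1 h at 37 °C, then 1 h at room temperature.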

With `O=S1(=O)N=C(NCc2ccccc2F)Nc2c(CCc3ccccc3)cccc21` [Compound 6-18, 3-((2-fluorobenzyl)amino)-5-phenethyl-4H-benzo[e][1,2,4]thiadiazine 1,1-dioxide], the IC50 is less than 100 nM. As for `O=S1(=O)N=C(NCc2ncccc2Cl)Nc2c(Cc3ccccc3Cl)cccc21` [Compound 12-3, 5-(2-chlorobenzyl)-3-(((3-chloropyridin-2-yl)methyl)amino)-4H-benzo[e][1,2,4]thiadiazine 1,1-dioxide], the IC50 was less than 100 nM.

For the compound `N#Cc1cccc(Cc2cccc3c2NC(NCc2ccccc2F)=NS3(=O)=O)c1` [Compound 6-12, 3-((3-((2-fluorobenzyl)amino)-1,1-dioxido-4H-benzo[e][1,2,4]thiadiazin-5-yl)methyl)benzonitrile], the IC50 is less than 100 nM. For `CC(C)(c1ccccc1F)c1cccc2c1NC(NCc1ncccc1Cl)=NS2(=O)=O` [Compound 15-1, 3-(((3-chloropyridin-2-yl)methyl)amino)-5-(2-(2-fluorophenyl)propan-2-yl)-4H-benzo[e][1,2,4]thiadiazine 1,1-dioxide], the IC50 was in the range of 501 to 1000 nM.

`O=S1(=O)N=C(NCc2ccccc2C(F)(F)F)Nc2c1ccc(F)c2Oc1ccccc1Cl` [Compound 1-27, 5-(2-chlorophenoxy)-6-fluoro-3-((2-(trifluoromethyl)benzyl)amino)-4H-benzo[e][1,2,4]thiadiazine 1,1-dioxide]: the IC50 is less than 100 nM. Regarding `O=S1(=O)N=C(NCc2ncc(F)cc2F)Nc2c1ccc(F)c2Oc1ccccc1Cl` [Compound 1-14, 5-(2-chlorophenoxy)-3-(((3,5-difluoropyridin-2-yl)methyl)amino)-6-fluoro-4H-benzo[e][1,2,4]thiadiazine 1,1-dioxide], the IC50 is less than 100 nM. As to `Cc1ccc(C(C)c2c(F)ccc3c2NC(NCc2cccc(F)c2)=NS3(=O)=O)cc1` (stereo not shown) [Compound 22-22, 6-fluoro-3-((3-fluorobenzyl)amino)-5-(1-(p-tolyl)ethyl)-4H-benzo[e][1,2,4]thiadiazine 1,1-dioxide], the IC50 was 100 to 500 nM.

As for `CC(c1ccccc1F)c1c(F)ccc2c1NC(NCc1ccccc1F)=NS2(=O)=O` (stereo not shown) [Compound 7-5, 6-fluoro-3-((2-fluorobenzyl)amino)-5-(1-(2-fluorophenyl)ethyl)-4H-benzo[e][1,2,4]thiadiazine 1,1-dioxide], the IC50 was less than 100 nM. As for `CC(c1cccc(OC(F)(F)F)c1)c1c(F)ccc2c1NC(NCc1cccc(F)c1)=NS2(=O)=O` (stereo not shown) [Compound 22-14, 6-fluoro-3-((3-fluorobenzyl)amino)-5-(1-(3-(trifluoromethoxy)phenyl)ethyl)-4H-benzo[e][1,2,4]thiadiazine 1,1-dioxide], the figure is 100 to 500 nM.

For `O=S1(=O)N=C(NCc2cccc(Cl)c2F)Nc2c1ccc(F)c2Cc1ccccc1Cl` [Compound 4-3, 3-((3-chloro-2-fluorobenzyl)amino)-5-(2-chlorobenzyl)-6-fluoro-4H-benzo[e][1,2,4]thiadiazine 1,1-dioxide], the IC50 was less than 100 nM. As for `COc1cc(F)ccc1CNC1=NS(=O)(=O)c2cccc(Cc3ccccc3Cl)c2N1` [Compound 12-9, 5-(2-chlorobenzyl)-3-((4-fluoro-2-methoxybenzyl)amino)-4H-benzo[e][1,2,4]thiadiazine 1,1-dioxide], the IC50 is less than 100 nM. As for `CC(c1ccc2c(c1)CCCC2)c1c(F)ccc2c1NC(NCc1cccc(F)c1)=NS2(=O)=O` (stereo not shown) [Compound 22-9, 6-fluoro-3-((3-fluorobenzyl)amino)-5-(1-(5,6,7,8-tetrahydronaphthalen-2-yl)ethyl)-4H-benzo[e][1,2,4]thiadiazine 1,1-dioxide], the IC50 lay in the range of 100 to 500 nM. With `O=S1(=O)N=C(NCc2cccc3ccccc23)Nc2c1ccc(F)c2Oc1ccccc1Cl` [Compound 2-6, 5-(2-chlorophenoxy)-6-fluoro-3-((naphthalen-1-ylmethyl)amino)-4H-benzo[e][1,2,4]thiadiazine 1,1-dioxide] the figure was 100 to 500 nM; with `O=S1(=O)N=C(NCc2ccccc2F)Nc2c(Cc3ccccc3F)cccc21` [Compound 6-6, 5-(2-fluorobenzyl)-3-((2-fluorobenzyl)amino)-4H-benzo[e][1,2,4]thiadiazine 1,1-dioxide], less than 100 nM; with `O=S1(=O)N=C(NCc2cccc(Cl)c2)Nc2c(Cc3ccccc3Cl)cccc21` [Compound 12-16, 5-(2-chlorobenzyl)-3-((3-chlorobenzyl)amino)-4H-benzo[e][1,2,4]thiadiazine 1,1-dioxide], less than 100 nM. As for `Cc1ccccc1C(C)c1c(F)ccc2c1NC(NCc1cccc(F)c1)=NS2(=O)=O` (stereo not shown) [Compound 22-2, 6-fluoro-3-((3-fluorobenzyl)amino)-5-(1-(o-tolyl)ethyl)-4H-benzo[e][1,2,4]thiadiazine 1,1-dioxide], the figure is less than 100 nM; as for `O=S1(=O)N=C(NCc2ncccc2F)Nc2c1ccc(F)c2Oc1cccc(F)c1Cl` [Compound 1-19, 5-(2-chloro-3-fluorophenoxy)-6-fluoro-3-(((3-fluoropyridin-2-yl)methyl)amino)-4H-benzo[e][1,2,4]thiadiazine 1,1-dioxide], less than 100 nM; as for `O=S1(=O)N=C(NCc2ccccc2C(F)(F)F)Nc2c1cc(F)c(F)c2Oc1ccccc1Cl` [Compound 1-22, 5-(2-chlorophenoxy)-6,7-difluoro-3-((2-(trifluoromethyl)benzyl)amino)-4H-benzo[e][1,2,4]thiadiazine 1,1-dioxide], 100 to 500 nM. On to `Cc1cccc(Cc2cccc3c2NC(NCc2ccccc2F)=NS3(=O)=O)c1` [Compound 6-10, 3-((2-fluorobenzyl)amino)-5-(3-methylbenzyl)-4H-benzo[e][1,2,4]thiadiazine 1,1-dioxide], for which the IC50 is less than 100 nM.

Consider `CC(c1ccc(F)c(C#N)c1)c1c(F)ccc2c1NC(NCc1cccc(F)c1)=NS2(=O)=O` (stereo not shown) [Compound 22-27, 2-fluoro-5-(1-(6-fluoro-3-((3-fluorobenzyl)amino)-1,1-dioxido-4H-benzo[e][1,2,4]thiadiazin-5-yl)ethyl)benzonitrile], for which the IC50 is less than 100 nM. With `O=S1(=O)N=C(NCc2ncccc2F)Nc2c1ccc(F)c2Oc1ccc(F)cc1F` [Compound 1-39, 5-(2,4-difluorophenoxy)-6-fluoro-3-(((3-fluoropyridin-2-yl)methyl)amino)-4H-benzo[e][1,2,4]thiadiazine 1,1-dioxide], the IC50 was less than 100 nM.

With `O=S1(=O)N=C(NCc2cccc(F)n2)Nc2c1cc(F)c(F)c2Cc1ccccc1Cl` [Compound 4-11, 5-(2-chlorobenzyl)-6,7-difluoro-3-(((6-fluoropyridin-2-yl)methyl)amino)-4H-benzo[e][1,2,4]thiadiazine 1,1-dioxide], the IC50 was in the range of 100 to 500 nM. With `O=S1(=O)N=C(NCc2ccccc2F)Nc2c1ccc(F)c2Oc1ccccc1Cl` [Compound 1-2, 5-(2-chlorophenoxy)-6-fluoro-3-((2-fluorobenzyl)amino)-4H-benzo[e][1,2,4]thiadiazine 1,1-dioxide] the figure was less than 100 nM; with `CC(c1ccccc1Cl)c1c(F)ccc2c1NC(NCc1ncccc1F)=NS2(=O)=O` (stereo not shown) [Compound 8-1, 5-(1-(2-chlorophenyl)ethyl)-6-fluoro-3-(((3-fluoropyridin-2-yl)methyl)amino)-4H-benzo[e][1,2,4]thiadiazine 1,1-dioxide], less than 100 nM. With `Cc1cccnc1CNC1=NS(=O)(=O)c2ccc(F)c(Oc3ccccc3Cl)c2N1` [Compound 1-32, 5-(2-chlorophenoxy)-6-fluoro-3-(((3-methylpyridin-2-yl)methyl)amino)-4H-benzo[e][1,2,4]thiadiazine 1,1-dioxide] the figure was 100 to 500 nM; with `O=S1(=O)N=C(NCc2ccccc2C(F)(F)F)Nc2c1cc(F)c(F)c2Cc1ccccc1Cl` [Compound 4-16, 5-(2-chlorobenzyl)-6,7-difluoro-3-((2-(trifluoromethyl)benzyl)amino)-4H-benzo[e][1,2,4]thiadiazine 1,1-dioxide], 100 to 500 nM. Turning to `O=S1(=O)N=C(NCc2cccc(F)c2)Nc2c1cc(F)c(F)c2Cc1ccccc1Cl` [Compound 4-12, 5-(2-chlorobenzyl)-6,7-difluoro-3-((3-fluorobenzyl)amino)-4H-benzo[e][1,2,4]thiadiazine 1,1-dioxide], the IC50 fell in the range of 100 to 500 nM. With `O=S1(=O)N=C(NCc2ncccc2F)Nc2c1ccc(F)c2Oc1cc(Cl)ccc1Cl` [Compound 1-38, 5-(2,5-dichlorophenoxy)-6-fluoro-3-(((3-fluoropyridin-2-yl)methyl)amino)-4H-benzo[e][1,2,4]thiadiazine 1,1-dioxide], the IC50 is less than 100 nM. Consider `CC(c1ccccc1F)c1c(F)ccc2c1NC(NCc1ccccc1)=NS2(=O)=O` (stereo not shown) [Compound 7-4, 3-(benzylamino)-6-fluoro-5-(1-(2-fluorophenyl)ethyl)-4H-benzo[e][1,2,4]thiadiazine 1,1-dioxide], for which the IC50 was less than 100 nM.

As to `Cc1c(F)cccc1CNC1=NS(=O)(=O)c2ccc(F)c(C(C)c3cccc(F)c3Cl)c2N1` (stereo not shown) [Compound 7-2, 5-(1-(2-chloro-3-fluorophenyl)ethyl)-6-fluoro-3-((3-fluoro-2-methylbenzyl)amino)-4H-benzo[e][1,2,4]thiadiazine 1,1-dioxide], the IC50 is less than 100 nM. As for `COc1ccc(Cc2cccc3c2NC(NCc2ccccc2F)=NS3(=O)=O)cc1` [Compound 6-15, 3-((2-fluorobenzyl)amino)-5-(4-methoxybenzyl)-4H-benzo[e][1,2,4]thiadiazine 1,1-dioxide], the figure is 100 to 500 nM.
